Values joined by “and” are separate entries in the source; they are usually repeats but may differ in a detail not shown here. Identical values can stand only once.
tested on: Trypanosoma brucei brucei; test: microbe, parasite or virus in culture; assay type: functional, organism-based, STIB 795; conditions: not given

| IC50 | SMILES |
| --- | --- |
| 4.73 µM | Cc1cc2cc3c(cc2c(C)n1)c1ccccc1n3C |
| 3.25 µM | Cn1c(-c2ccco2)nn(C2CC(=O)C3OCC2O3)c1=S (centres undefined) |
| 0.39 µM and 0.092 µM | CCN1CCS/C1=C\C=C\C1=[N+](CC)CCS1 |
| 4.62 µM | Cc1ccc(OCc2nn(C3CC(=O)C4OCC3O4)c(=S)n2C)cc1C (centres undefined) |

same assay, conditions: Trypanosoma brucei, STIB 795

| SMILES | IC50 |
| --- | --- |
| COc1ccc(C(CC(=O)c2ccco2)SCc2ccco2)cc1OC (centres undefined) | > 10.4 µM |
| Cc1cc(C)c(CCCc2c(C)nc(N)nc2N)cc1C | > 10.4 µM |
| Clc1ccc(C(=C2CN3CCC2CC3)c2ccc(Cl)s2)s1 | > 10.4 µM |
| O=C(CSc1nc2[nH]ncc2c(=O)n1-c1ccccc1)Nc1nccs1 | > 10.4 µM |
| Cc1cc(Br)cc(/C=N/NC(=O)c2ccncc2)c1O | > 10.4 µM |
| N#CC(c1ccc(Cl)cc1Cl)c1cnnc2ccccc12 (centres undefined) | > 10.4 µM |
| COc1ccc(NC2=NC(=O)C(CO)(CO)S2)cc1 | > 10.4 µM |
| Cc1ccc(C(CC(=O)c2ccco2)SCCO)cc1 (centres undefined) | > 10.4 µM |
| CC(=O)c1sc(Nc2nc(NC(C)C)nc(NC(C)C)n2)nc1C | > 10.4 µM |
| COc1ccccc1NC(=O)c1cc2ccccc2cc1O | > 10.4 µM |
| CCn1c2ccccc2c2cc(CNCCc3ccc(OC)c(OC)c3)ccc21 | > 10.4 µM |
| CCOC(=O)c1cnc2c(CC)cccc2c1NC1CC(C)(C)NC(C)(C)C1 | > 10.4 µM |
| CCOC(=O)COc1ccc(/C=C\c2cc(C(F)(F)F)nc(=O)[nH]2)cc1OC | > 10.4 µM |
| Oc1ccc(-c2nnc(SCCN3CCCCC3)n2Cc2ccccc2)cc1 | > 10.4 µM |
| Nc1ccccc1SC(CC(=O)c1ccc(F)cc1)c1ccccc1 (centres undefined) | > 10.4 µM |
| O=C(Nc1ccccc1C(=O)N/N=C/c1ccc(O)cc1O)c1ccc(F)cc1 | > 10.4 µM |
| O=C(N/N=C\c1ccc(-c2cccc(Cl)c2Cl)o1)c1ccc(F)cc1 | > 10.4 µM |
| Oc1ccccc1/C=N/Nc1nc2ccccc2n2nnnc12 | > 10.4 µM |
| CCN(CC)S(=O)(=O)c1cccc(N/N=C2\C=CC(=O)c3cccnc32)c1 | > 10.4 µM |
| COc1ccc(O)c(/C=N/NC(=O)c2cccc3ccccc23)c1 | > 10.4 µM |
| c1ccc(/C(=N\Nc2nc3ccccc3s2)c2ccccn2)cc1 | > 10.4 µM |
| CCC(=O)c1coc2ccc(O)cc12 | > 10.4 µM |
| CC(C)NC(=O)Nc1ccc(-c2noc(-c3ccc(Br)o3)n2)cc1 | > 10.4 µM |
| COc1ccc2nc(C)cc(Nc3ccc(N4CCOCC4)cc3)c2c1 | > 10.4 µM |

| SMILES | IC50 |
| --- | --- |
| CCCN1CCN(c2ncc3c(n2)CCN(Cc2ccccc2Cl)C3)CC1 | > 10.4 µM |
| CCN(CC)c1cc(C)c2cc(NC(=O)/C=C/c3ccccc3Cl)ccc2n1 | > 10.4 µM |
| CC(C)COCc1ccc(O)c2ncccc12 | > 10.4 µM |
| O=C(Nc1nc(NC(=O)c2ccco2)n(-c2ccccc2)n1)c1ccccc1 | > 10.4 µM |
| CC(/C=N/NC(=O)c1cc(-c2ccc(OC(C)C)cc2)n[nH]1)=C\c1ccccc1 | > 10.4 µM |
| CSC1C(c2ccc(F)cc2)=NN(C(=O)Nc2ccc(C#N)cc2)C1(C)C (centres undefined) | > 10.4 µM |
| CNC(c1ccccc1)C1c2cccc3cccc(c23)C1O (centres undefined) | > 10.4 µM |
| COc1ccc(-c2noc(CCC(=O)Nc3ccncc3)n2)cc1OC | > 10.4 µM |
| Cc1ccc(N2CC(C(=O)NCc3nnnn3-c3ccccc3)CC2=O)cc1C (centres undefined) | > 10.4 µM |
| O=C(CC1(O)C(=O)Nc2ccc(Br)cc21)c1ccccn1 (centres undefined) | > 10.4 µM |
| COc1ccc(Nc2nccc(-c3cccc(N)c3)n2)cc1 | > 10.4 µM |
| CN(C)S(=O)(=O)c1ccc2nc(NC(=O)c3cccs3)sc2c1 | > 10.4 µM |
| COc1cccc(/C=N/NC(=O)c2ccccc2I)c1O | > 10.4 µM |
| CCN(CC)C1=C(n2nnc3ccccc32)C(=O)c2ccccc2C1=O | > 10.4 µM |
| Cc1ccc(N2CCN(c3ccc4nnc(C)n4n3)CC2)c(C)c1 | > 10.4 µM |
| OCCNCc1c(OCc2ccc(Cl)cc2Cl)ccc2ccccc12 | > 10.4 µM |
| O=C(CCN1CCCCC1)Nc1ccc(C2CCCC2)cc1 | > 10.4 µM |
| Clc1ccc(-c2nnc(NCCN3CCCC3)c3ccccc23)cc1 | > 10.4 µM |
| O=C1C(C2=C(O)c3ccccc3C2=O)=Nc2ccccc21 | > 10.4 µM |
| COc1ccc(-c2cc(-c3c(O)ccc4ccccc34)n[nH]2)cc1 | > 10.4 µM |
| O=C(N/N=C/c1cc(Cl)ccc1O)c1cc(C2CC2)nc2ccccc12 | > 10.4 µM |
| O=C(N/N=C/c1ccc(Br)cc1O)c1n[nH]c2c1CCC2 | > 10.4 µM |
| CCn1c2ccccc2c2cc(NC(=O)C(=O)NCCCN(C)C)ccc21 | > 10.4 µM |
| CC1CN(C(=O)c2ccc(COc3ccc(C(C)C)cc3)cc2)CC(C)O1 (centres undefined) | > 10.4 µM |

| SMILES | IC50 |
| --- | --- |
| CN1CCC(Oc2ccccc2Sc2ccc(C(F)(F)F)cc2)CC1 | > 10.4 µM |
| Cc1ccc(Nc2nn3nnnc3c3ccccc23)c(C)c1 | > 10.4 µM |
| O=C(Nc1nc(-c2ccccn2)cc2ccccc12)c1cccc(Cl)c1 | > 10.4 µM |
| COC(=O)C1=C(C)NC(=O)/C1=C\c1cccc(OC)c1OC | > 10.4 µM |
| Fc1ccc(C(OCCN2CCCC2)c2ccc(Br)cc2)cc1 (centres undefined) | > 10.4 µM |
| COc1cc(NS(=O)(=O)c2ccc(C)cc2)c2ncccc2c1 | > 10.4 µM |
| Cc1nnc(Sc2nc(Nc3ccccc3)nc(Nc3ccccc3)n2)s1 | > 10.4 µM |
| OCCSc1nc2ccccc2nc1N/N=C/c1ccccc1O | > 10.4 µM |
| CCn1cc(CN2CCC(C(=O)NCc3ccc(F)cc3)CC2)c2ccccc21 | > 10.4 µM |
| COc1cc(NC(=O)Nc2ccc(-c3noc(C)n3)cc2)cc(OC)c1OC | > 10.4 µM |
| CCOc1cc(CNC2CCCC2)cc(Cl)c1OCc1ccccc1 | > 10.4 µM |
| Oc1c(C(Nc2ccccn2)c2ccc(OC(F)F)cc2)ccc2cccnc12 (centres undefined) | > 10.4 µM |
| CCS(=O)(=O)c1cccc(-c2ccc3nc(N)nc(N)c3c2C)c1 | > 10.4 µM |
| Cn1nc(-c2cccs2)nc2c(=O)n(C)c(=O)nc1-2 | > 10.4 µM |
| COC(=O)CCC/C=C1/SC[C@@H](NC(=O)c2ccccc2)/C1=N/O | > 10.4 µM |
| C=CCc1cccc(/C=N/NC(=O)c2nonc2C)c1O | > 10.4 µM |
| O=C(Nc1ccc(Cl)c(-c2nc3ncccc3o2)c1)c1cccc(F)c1 | > 10.4 µM |
| Cc1ccc(C(CNC(=O)c2ccc(Br)cc2)N2CCCC2)cc1 (centres undefined) | > 10.4 µM |
| CCOC(=O)COC1=C(c2ccccc2)C(=O)c2ccccc2C1=O | > 10.4 µM |
| CCN(CC)c1cc(C)c2cc(NC(=O)C3CCC(C(C)(C)C)CC3)ccc2n1 (centres undefined) | > 10.4 µM |
| COc1ccc(C(=O)c2ccc(N3CCNCC3)c(F)c2)cc1Br | > 10.4 µM |
| NC(=S)N/N=C/c1ccc(OCc2c(Cl)cccc2Cl)cc1 | > 10.4 µM |
| C/C(=N/NC(=O)c1cc(-c2ccccc2)nc2ccccc12)c1ccccc1O | > 10.4 µM |
| O=C1C(Nc2ccccc2)=C/C(=N/S(=O)(=O)c2cccs2)c2ccccc21 | > 10.4 µM |

Now from value to compound:

| IC50 | SMILES |
| --- | --- |
| > 10.4 µM | CCC(CO)NCC(O)Cn1c2ccc(Cl)cc2c2cc(Cl)ccc21 (centres undefined) |
| > 10.4 µM | COc1ccc(C(=O)CSC2=C(C#N)C3(CCCCC3)C(C#N)=C(N)N2)cc1 |
| > 10.4 µM | O=C(CCCOc1ccc(Cl)cc1Cl)N/N=C/c1ccc(O)cc1O |
| > 10.4 µM | CC1CCN(C(=S)NC(=O)c2ccccc2I)CC1 |
| > 10.4 µM | COc1ccc(CN2CCN(C3CCC(c4ccccc4)CC3)CC2)c(OC)c1 (centres undefined) |
| > 10.4 µM | Cc1cc(N)n2ncc(-c3ccc(Cl)cc3)c2n1 |
| > 10.4 µM | Cc1cccc(/C=N\Nc2nncc(-c3ccccc3)n2)n1 |
| > 10.4 µM | Clc1nn2nnnc2c2ccccc12 |
| > 10.4 µM | Cc1cnn(-c2cc(N/N=C/c3cc(Cl)cc(Cl)c3O)ncn2)c1 |
| > 10.4 µM | Cc1nc2ncnn2c(Sc2ccc(NC(=O)CC(C)C)cc2)c1C |
| > 10.4 µM | O=C(/C=C/c1ccc(F)cc1)n1cnc2ccccc21 |
| > 10.4 µM | O=C(N/N=C/c1cc(Cl)cc(Br)c1O)c1ccccc1O |
| > 10.4 µM | N/C(=N\OC(=O)c1ccc(F)cc1)c1cccnc1 |
| > 10.4 µM | O=C(Nc1ccnc(Cl)c1)NC12CC3CC(CC(C3)C1)C2 |
| > 10.4 µM | C/C(=N\NC(=O)c1ccc(C)c(Br)c1)c1ccc(O)cc1O |
| > 10.4 µM | CN1CCC(C2Oc3ccc(F)cc3Sc3ccc(Cl)cc32)CC1 (centres undefined) |
| > 10.4 µM | Cc1cc(C)c2nc(C)cc(Nc3ccc(N(C)C)cc3)c2c1 |
| > 10.4 µM | CC(NC(=O)c1cc(S(=O)(=O)N2CCCC2)cn1C)c1ccccc1 (centres undefined) |
| > 10.4 µM | C=C1N(CCCCN2C(=C)C(C)(C)c3ccccc32)c2ccccc2C1(C)C |
| > 10.4 µM | CC(C)(C)c1ccc(CCC2OCC(CN3CCCC3)O2)cc1 (centres undefined) |
| > 10.4 µM | Cc1ncc(C)c2c1[nH]c1ccccc12 |
| > 10.4 µM | Cn1c(NC(=O)c2ccccc2NC(=O)c2ccccc2)nc2ccccc21 |
| > 10.4 µM | CC(=O)c1ccc2c(c1)[nH]c1cc(C(C)=O)ccc12 |
| > 10.4 µM | Cc1c(-c2noc(C(=O)NC(C)C)n2)oc2c(C)cccc12 |

| IC50 | SMILES |
| --- | --- |
| > 10.4 µM | CCC(=O)c1ccc(Oc2cc(=O)n(C)c(=O)n2C)cc1 |
| > 10.4 µM | CCCCC(CC)C(=O)Nc1ccc2ccc3cccnc3c2n1 (centres undefined) |
| > 10.4 µM | O=C(Nc1ccccc1C(=O)N/N=C/c1ccccc1O)c1ccco1 |
| > 10.4 µM | Fc1ccc(OCc2nn3c(-c4ccccc4Cl)nnc3s2)cc1 |
| > 10.4 µM | C=CC1=Nc2ccccc2C(c2ccccc2)(c2ccccc2)N1 |
| > 10.4 µM | C/C(=N/Nc1ccc(F)cc1F)c1cc2cc(Br)ccc2oc1=O |
| > 10.4 µM | CCOC(=O)c1c(C)[nH]c(=S)c(C#N)c1-c1ccncc1 |
| > 10.4 µM | CCOC(=O)c1ccc(Nc2nc(-c3cccnc3)nc3ccccc23)cc1 |
| > 10.4 µM | CCCCOc1cccc(-c2cc(C(=O)N/N=C(\C)CC)c3ccccc3n2)c1 |
| > 10.4 µM | N#Cc1cc(C#N)c(SCC(=O)Nc2cccc(C(F)(F)F)c2)nc1N |
| > 10.4 µM | CCOC(=O)c1nc(Nc2cc(Cl)c(OC)cc2OC)c2ccccc2n1 |
| > 10.4 µM | CCCCCOc1ccc(NC(=N)Nc2nc(C)cc(C)n2)cc1 |
| > 10.4 µM | COc1ccc(CN2CCc3nc(N4CCC(C)CC4)ncc3C2)c(OC)c1 |
| > 10.4 µM | CCn1c(-c2ccccc2Cl)nc2ccccc21 |
| > 10.4 µM | Cc1ccc(OCCn2c(N)nc3ccccc32)cc1 |
| > 10.4 µM | Cc1cc(C)n(-c2nc(N/N=C/c3cccs3)nc(Nc3ccccc3)n2)n1 |
| > 10.4 µM | CC1C(=O)Nc2ccc(S(=O)(=O)N3CCOCC3)cc2NC1=O (centres undefined) |
| > 10.4 µM | Nc1ccccc1S(=O)(=O)Nc1cccc2cccnc12 |
| > 10.4 µM | c1ccc(Oc2cccc(-c3nc4ccccc4[nH]3)c2)cc1 |
| > 10.4 µM | C(=N\Nc1nc(-c2ccccc2)cs1)/c1ccncc1 |
| > 10.4 µM | Cc1cc(C(=O)CN2CCCCC2)c(C)n1-c1ccc(Cl)c(Cl)c1 |
| 5.19 µM | Cc1cc2cc3c(cc2c(C)n1)c1ccccc1n3C |
| 5.5 µM | Cn1c(-c2ccco2)nn(C2CC(=O)C3OCC2O3)c1=S (centres undefined) |
| 4.31 µM | Cc1ccc(OCc2nn(C3CC(=O)C4OCC3O4)c(=S)n2C)cc1C (centres undefined) |

— ChEMBL document CHEMBL2094269, “WEHI/Eskitis Trypanosoma b. brucei screening data”
